Numbering of substitutions follows the chain as printed. Several values for one entry are separate records, joined by “and”; a condition that tells them apart may be missing. Equal values may be shown once.
Assays:
Assay in all cases: NPY-induced IP accumulation (IP-One), mutant
Format in all cases: cell-based
Y2R mutant F307^7.35A = molecular target: T1, Y2R mutant F307^7.35A (Homo sapiens, UniProt P49146, F307A)
T1 construct: expressed in transfected cells; host or cells: HEK293
T1 sequence (P49146 1-381 F307A): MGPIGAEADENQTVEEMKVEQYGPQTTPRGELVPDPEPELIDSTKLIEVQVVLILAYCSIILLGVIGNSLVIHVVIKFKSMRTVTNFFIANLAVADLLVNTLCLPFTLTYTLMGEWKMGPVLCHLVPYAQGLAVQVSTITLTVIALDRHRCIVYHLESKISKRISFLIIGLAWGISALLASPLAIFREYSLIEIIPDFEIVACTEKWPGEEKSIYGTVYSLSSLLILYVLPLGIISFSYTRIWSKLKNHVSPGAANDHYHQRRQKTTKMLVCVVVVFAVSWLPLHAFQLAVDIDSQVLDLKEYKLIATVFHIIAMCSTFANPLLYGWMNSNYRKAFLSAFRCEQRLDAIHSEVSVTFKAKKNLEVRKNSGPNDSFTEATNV

Y2R mutant H285^6.52T = molecular target: T2, Y2R mutant H285^6.52T (Homo sapiens, UniProt P49146, H285T)
T2 construct: expressed in transfected cells; host or cells: HEK293
T2 sequence (P49146 1-381 H285T): T1 sequence (P49146 1-381 F307A) with H285T, A307F

Y2R mutant L227^5.46A = molecular target: T3, Y2R mutant L227^5.46A (Homo sapiens, UniProt P49146, L227A)
T3 construct: expressed in transfected cells; host or cells: HEK293
T3 sequence (P49146 1-381 L227A): T1 sequence (P49146 1-381 F307A) with L227A, A307F

Y2R mutant S220^5.39A = molecular target: T4, Y2R mutant S220^5.39A (Homo sapiens, UniProt P49146, S220A)
T4 construct: expressed in transfected cells; host or cells: HEK293
T4 sequence (P49146 1-381 S220A): T1 sequence (P49146 1-381 F307A) with S220A, A307F

Y2R mutant T111^2.65A = molecular target: T5, Y2R mutant T111^2.65A (Homo sapiens, UniProt P49146, T111A)
T5 construct: expressed in transfected cells; host or cells: HEK293
T5 sequence (P49146 1-381 T111A): T1 sequence (P49146 1-381 F307A) with T111A, A307F

[1] = 1 μM antagonist, source data Fig. 3
[2] = EC50(NPY + 1 μM antagonist)/EC50(NPY)
[3] = EC50 ratio (WT)/EC50 ratio (mutant)

N=C(N)NCCC[C@H](NC(=O)CC1(CC(=O)N2CCN(C3c4ccccc4NC(=O)c4ccccc43)CC2)CCCC1)C(=O)NCCn1c(=O)n(-c2ccccc2)n(-c2ccccc2)c1=O (stereo partly shown) [BIIE0246]
Average EC50 ratio (Y2R mutant F307^7.35A; [1]): 89.4 | EC50 ratio (individual experiments) (Y2R mutant F307^7.35A; [1]): 68.0 and 110.9 | EC50 ratio (Y2R mutant F307^7.35A; [2]): 68 and 111 | Ratio change (fold) (Y2R mutant F307^7.35A; [3]): 2 fold and 1.4 fold | Average EC50 ratio (Y2R mutant H285^6.52T; [1]): 2.7 | EC50 ratio (individual experiments) (Y2R mutant H285^6.52T; [1]): 3.5 and 1.9 | Ratio change (fold) (Y2R mutant H285^6.52T; [3]): 45 fold and 84 fold | Average EC50 ratio (Y2R mutant L227^5.46A; [1]): 27.7 | EC50 ratio (individual experiments) (Y2R mutant L227^5.46A; [1]): 31.4 and 24.0 | EC50 ratio (Y2R mutant L227^5.46A; [2]): 31 and 24 | Ratio change (fold) (Y2R mutant L227^5.46A; [3]): 5 fold and 7 fold | Average EC50 ratio (Y2R mutant S220^5.39A; [1]): 502.4 | EC50 ratio (individual experiments) (Y2R mutant S220^5.39A; [1]): 515.1 and 489.7 | EC50 ratio (Y2R mutant S220^5.39A; [2]): 515 and 490 | Ratio change (fold) (Y2R mutant S220^5.39A; [3]): 0.3 fold | Average EC50 ratio (Y2R mutant T111^2.65A; [1]): 247.7 | EC50 ratio (individual experiments) (Y2R mutant T111^2.65A; [1]): 265.4 and 230.1 | EC50 ratio (Y2R mutant T111^2.65A; [2]): 265 and 230 | Ratio change (fold) (Y2R mutant T111^2.65A; [3]): 0.6 fold and 0.7 fold
